Reference: ChEMBL document CHEMBL5036344, “Design and application of hybrid cyclic-linear peptide-doxorubicin conjugates as a strategy to overcome doxorubicin resistance and toxicity” (Eur J Med Chem, 2021)
Calls of active or inactive are those of the source. No cut-off for these calls is given here.

Experiments:
[1] = test system: H9c2; assay: Cytotoxicity against rat H9c2 cells assessed as change in cell morphology at 5uM measured after 72 hours; format: cell-based; details: h9c2, 72 h
[2] = test system: H9c2; assay: Cytotoxicity against rat H9c2 cells assessed as reduction in cell viability at 5 uM incubated for 24 hrs by MTT assay; format: cell-based; details: h9c2, 24 h
[3] = test system: CCRF-CEM; assay: Cytotoxicity against human CCRF-CEM cells assessed as reduction in cell viability at 5 uM incubated for 72 hrs by MTT assay; format: functional
[4] = test system: H9c2; assay: Cytotoxicity against rat H9c2 cells assessed as reduction in cell viability at 5 uM incubated for 96 hrs by MTT assay; format: cell-based; details: h9c2, 96 h
[5] = test system: SK-OV-3; assay: Cytotoxicity against human SK-OV-3 cells assessed as reduction in cell viability at 5 uM incubated for 72 hrs by MTT assay; format: functional
[6] = test system: MDA-MB-231; assay: Cytotoxicity against wild type human MDA-MB-231 cells assessed as reduction in cell viability incubated for 72 hrs by MTT assay; format: functional; details: read-out: LC50 (the source's name)
[7] = test system: SK-OV-3; assay: Cytotoxicity against human SK-OV-3 cells assessed as reduction in cell viability at 5 uM incubated for 24 hrs by MTT assay; format: functional
[8] = test system: MES-SA; assay: Cytotoxicity against human MES-SA cells assessed as reduction in cell viability incubated for 72 hrs by MTT assay; format: functional; details: read-out: LC50 (the source's name)
[9] = test system: LLC-PK1; assay: Cytotoxicity against pig LLC-PK1 cells assessed as reduction in cell viability at 5 uM incubated for 24 hrs by MTT assay; format: cell-based, Sus scrofa; details: llc-pk1, 24 h
[10] = organism: Rattus norvegicus; assay: Drug uptake in nucleus of rat H9c2 cells measured after 24 hrs by DAPI staining based confocal microscopy analysis; format: ADME, cell-based; details: h9c2, 24 h
[11] = test system: AGS; assay: Cytotoxicity against human AGS cells assessed as reduction in cell viability at 5 uM incubated for 24 hrs by MTT assay; format: functional
[12] = test system: CCRF-CEM; assay: Cytotoxicity against human CCRF-CEM cells assessed as reduction in cell viability at 5 uM incubated for 24 hrs by MTT assay; format: functional
[13] = Drug uptake in nucleus of human SK-OV-3 cells incubated for 3 hrs by fluorescence microscopy; format: ADME, subcellular; details: sk-ov-3, 3 h
[14] = test system: H9c2; assay: Cytotoxicity against rat H9c2 cells assessed as reduction in cell viability at 5 uM incubated for 72 hrs by MTT assay; format: cell-based; details: h9c2, 72 h
[15] = test system: LLC-PK1; assay: Cytotoxicity against pig LLC-PK1 cells assessed as reduction in cell viability at 5 uM incubated for 72 hrs by MTT assay; format: cell-based, Sus scrofa; details: llc-pk1, 72 h
[16] = test system: AGS; assay: Cytotoxicity against human AGS cells assessed as reduction in cell viability at 5 uM incubated for 72 hrs by MTT assay; format: functional
[17] = test system: MDA-MB-231; assay: Cytotoxicity against doxorubicin resistant human MDA-MB-231 cells assessed as reduction in cell viability incubated for 72 hrs by MTT assay; format: functional; details: read-out: LC50 (the source's name)
[18] = test system: SK-OV-3; assay: Cytotoxicity against human SK-OV-3 cells assessed as reduction in cell viability at 25 uM incubated for 72 hrs by MTT assay; format: functional
[19] = test system: AGS; assay: Cytotoxicity against human AGS cells assessed as reduction in cell viability at 5 to 10 uM incubated for 24 to 72 hrs by MTT assay; format: functional, cell-based; details: dose 5-10 µM, time 24-72 hrs
[20] = test system: AGS; assay: Cytotoxicity against human AGS cells assessed as reduction in cell viability at 25 uM incubated for 72 hrs by MTT assay; format: functional
[21] = test system: CCRF-CEM; assay: Cytotoxicity against human CCRF-CEM cells assessed as reduction in cell viability at 25 uM incubated for 24 hrs by MTT assay; format: functional
[22] = test system: LLC-PK1; assay: Cytotoxicity against pig LLC-PK1 cells assessed as reduction in cell viability at 50 uM after 24 hrs of incubation by MTT assay; format: cell-based, Sus scrofa; details: llc-pk1, 24 h
[23] = test system: CCRF-CEM; assay: Cytotoxicity against human CCRF-CEM cells assessed as reduction in cell viability at 5 to 10 uM after 72 hrs incubation by MTT assay; format: functional; details: dose 5-10 µM
[24] = test system: LLC-PK1; assay: Cytotoxicity against pig LLC-PK1 cells assessed as reduction in cell viability at 5 to 50 uM incubated for 72 hrs by MTT assay; format: cell-based, Sus scrofa; details: llc-pk1, 72 h, dose 5-50 µM
[25] = test system: AGS; assay: Cytotoxicity against human AGS cells assessed as reduction in cell viability at 50 uM incubated for 72 hrs by MTT assay; format: functional
[26] = test system: SK-OV-3; assay: Cytotoxicity against human SK-OV-3 cells assessed as reduction in cell viability at 5 to 25 uM incubated for 24 hrs by MTT assay; format: functional; details: dose 5-25 µM
[27] = test system: CCRF-CEM; assay: Cytotoxicity against human CCRF-CEM cells assessed as reduction in cell viability at 25 uM incubated for 72 hrs by MTT assay; format: functional
[28] = test system: H9c2; assay: Cytotoxicity against rat H9c2 cells assessed as reduction in cell viability at 5 to 25 uM incubated upto 96 hrs by MTT assay; format: cell-based; details: h9c2, 96 h, dose 5-25 µM
[29] = Stability of compound in 10% FBS assessed as parent compound remaining after 24 hrs by HPLC analysis; format: ADME; details: cattle, 10% FBS (fetal bovine serum), read-out: Stability
[30] = Drug uptake in nucleus of human MDA-MB-231 cells by confocal microscopy in the presence of 50 ug/mL genistein; format: ADME, subcellular
[31] = test system: H9c2; assay: Cytotoxicity against rat H9c2 cells assessed as reduction in cell viability at 25 uM incubated for 24 hrs by MTT assay; format: cell-based; details: h9c2, 24 h
[32] = Drug uptake in human SK-OV-3 cells assessed as doxorubicin fluorescence incubated for 3 hrs by fluorescence microscopy; format: ADME, cell-based; details: sk-ov-3, 3 h
[33] = Drug uptake in nucleus of human MDA-MB-231 cells by confocal microscopy in the presence of 6 ug/mL chloroquine; format: ADME, subcellular
[34] = test system: CCRF-CEM; assay: Cytotoxicity against human CCRF-CEM cells assessed as reduction in cell viability at 5 to 25 uM after 72 hrs incubation by MTT assay; format: functional; details: dose 5-25 µM
[35] = Drug uptake in human MDA-MB-231cells by flow cytometry in the presence of 50 ug/mL nystatin; format: ADME
[36] = Drug uptake in human MDA-MB-231 cells by flow cytometry in the presence of 2.5 mM methyl-beta-cyclodextrin; format: ADME, cell-based
[37] = Protein binding in 20% FBS by HPLC analysis; format: ADME, cell-free, Bos taurus; details: cattle, serum
[38] = test system: H9c2; assay: Cytotoxicity against rat H9c2 cells assessed as reduction in cell viability at 25 uM incubated for 72 hrs by MTT assay; format: cell-based; details: h9c2, 72 h
[39] = test system: CCRF-CEM; assay: Cytotoxicity against human CCRF-CEM cells assessed as reduction in cell viability at 5 to 10 uM incubated for 24 hrs by MTT assay; format: functional, cell-based; details: dose 5-10 µM
[40] = Drug uptake in nucleus of human MDA-MB-231 cells by confocal microscopy in the presence of 50 ug/mL nystatin; format: ADME, subcellular
[41] = test system: H9c2; assay: Cytotoxicity against rat H9c2 cells assessed as reduction in cell viability at 5 to 10 uM incubated upto 96 hrs by MTT assay; format: cell-based; details: h9c2, 96 h, dose 5-10 µM
[42] = test system: LLC-PK1; assay: Cytotoxicity against pig LLC-PK1 cells assessed as reduction in cell viability at 10 uM incubated for 24 to 72 hrs by MTT assay; format: cell-based, Sus scrofa; details: llc-pk1, 10 µM, time 24-72 hrs
[43] = test system: AGS; assay: Cytotoxicity against human AGS cells assessed as reduction in cell viability incubated for 72 hrs by MTT assay; format: functional
[44] = test system: LLC-PK1; assay: Cytotoxicity against pig LLC-PK1 cells assessed as reduction in cell viability at 50 uM by MTT assay; format: cell-based, Sus scrofa; details: llc-pk1, 50 µM
[45] = test system: SK-OV-3; assay: Cytotoxicity against human SK-OV-3 cells assessed as reduction in cell viability at 10 uM incubated for 72 hrs by MTT assay; format: functional
[46] = Drug uptake in human SK-OV-3 cells at 5 uM incubated for 24 hrs by fluorescence microscopy; format: ADME, cell-based; details: sk-ov-3, 24 h
[47] = Drug uptake in nucleus of human MDA-MB-231 cells by confocal microscopy in the presence of 20 ug/mL chlorpromazine; format: ADME, subcellular
[48] = test system: AGS; assay: Cytotoxicity against human AGS cells assessed as reduction in cell viability at 5 to 10 uM incubated for 24 hrs by MTT assay; format: functional, cell-based; details: dose 5-10 µM
[49] = test system: H9c2; assay: Cytotoxicity against rat H9c2 cells assessed as reduction in cell viability at 25 uM incubated for 96 hrs by MTT assay; format: cell-based; details: h9c2, 96 h
[50] = Drug uptake in human MDA-MB-231 cells by flow cytometry in the presence of 30 uM chlorpromazine; format: ADME, cell-based
[51] = Drug uptake in rat H9c2 cells assessed as doxorubicin fluorescence measured at 24 to 72 hrs by fluorescence microscopy analysis; format: ADME, cell-based; details: time 24-72 hrs
[52] = Drug uptake in human MDA-MB-231 cells by flow cytometry in the presence of 100 uM chloroquine; format: ADME, cell-based

COc1cccc2c1C(=O)c1c(O)c3c(c(O)c1C2=O)C[C@@](O)(C(=O)CO)C[C@@H]3O[C@H]1C[C@H](N)[C@H](O)[C@H](C)O1 [DOXORUBICIN]
Activity [1]: Toxic | Activity [2]: 20% | Activity [3]: 85% | Activity [4]: 44% | Activity [5]: 33% | CC50 [6]: 0.45 µM | Activity [7]: 27% | CC50 [8]: 4.3 µM | Activity [9]: 64% | Drug uptake [10]: Active | Activity [11]: 46% | Activity [12]: 52% | Drug uptake [13]: Active | Activity [14]: 44% | Activity [15]: 77% | Activity [16]: 87% | CC50 [17]: 2.3 µM

N=C(N)NCCC[C@@H]1NC(=O)[C@H](CCCCNC(=O)[C@H](Cc2c[nH]c3ccccc23)NC(=O)[C@H](Cc2c[nH]c3ccccc23)NC(=O)[C@H](Cc2c[nH]c3ccccc23)NC(=O)[C@H](Cc2c[nH]c3ccccc23)NC(=O)[C@H](Cc2c[nH]c3ccccc23)NC(=O)[C@H](Cc2c[nH]c3ccccc23)NC(=O)[C@H](Cc2c[nH]c3ccccc23)NC(=O)CCN)NC(=O)[C@H](CCCNC(=N)N)NC(=O)[C@H](CCCNC(=N)N)NC(=O)[C@H](CCCNC(=N)N)NC(=O)[C@H](CCCNC(=N)N)NC1=O
Activity [18]: 19% | Activity [19]: inactive | Activity [20]: 24% | Activity [21]: 68% | Activity [22]: 71% | Activity [23]: 10% | Activity [24]: Non-Toxic | Activity [25]: 87% | Activity [26]: 21%

COc1cccc2c1C(=O)c1c(O)c3c(c(O)c1C2=O)C[C@@](O)(C(=O)CO)C[C@@H]3O[C@H]1C[C@H](NC(=N)CCCSSC[C@H](NC(C)=O)C(=O)N[C@@H](Cc2c[nH]c3ccccc23)C(=O)N[C@@H](Cc2c[nH]c3ccccc23)C(=O)N[C@@H](Cc2c[nH]c3ccccc23)C(=O)N[C@@H](Cc2c[nH]c3ccccc23)C(=O)N[C@@H](Cc2c[nH]c3ccccc23)C(=O)N[C@@H](Cc2c[nH]c3ccccc23)C(=O)N[C@@H](Cc2c[nH]c3ccccc23)C(=O)NCCCC[C@@H]2NC(=O)[C@H](CCCNC(=N)N)NC(=O)[C@H](CCCNC(=N)N)NC(=O)[C@H](CCCNC(=N)N)NC(=O)[C@H](CCCNC(=N)N)NC(=O)[C@H](CCCNC(=N)N)NC2=O)[C@H](O)[C@H](C)O1
Activity [27]: 79% | Activity [28]: Non-Toxic

COc1cccc2c1C(=O)c1c(O)c3c(c(O)c1C2=O)C[C@@](O)(C(=O)COC(=O)CCCC(=O)NCCC(=O)N[C@@H](Cc1c[nH]c2ccccc12)C(=O)N[C@@H](Cc1c[nH]c2ccccc12)C(=O)N[C@@H](Cc1c[nH]c2ccccc12)C(=O)N[C@@H](Cc1c[nH]c2ccccc12)C(=O)N[C@@H](Cc1c[nH]c2ccccc12)C(=O)N[C@@H](Cc1c[nH]c2ccccc12)C(=O)N[C@@H](Cc1c[nH]c2ccccc12)C(=O)NCCCC[C@@H]1NC(=O)[C@H](CCCNC(=N)N)NC(=O)[C@H](CCCNC(=N)N)NC(=O)[C@H](CCCNC(=N)N)NC(=O)[C@H](CCCNC(=N)N)NC(=O)[C@H](CCCNC(=N)N)NC1=O)C[C@@H]3O[C@H]1C[C@H](N)[C@H](O)[C@H](C)O1
remaining at 24 h [29]: 25% | Drug uptake [30]: Active | Activity [18]: 48% | Activity [31]: 68% | Drug uptake [32]: Not Active | Drug uptake [33]: Active | Activity [34]: 84% | Drug uptake [35]: Active | Drug uptake [36]: 72% | Activity [37]: Active | Activity [38]: 37% | Activity [39]: Active | Activity [5]: 29% | Drug uptake [40]: Active | Activity [21]: 64% | CC50 [6]: 0.56 µM | Activity [41]: Non-Toxic | Activity [42]: Non-Toxic | CC50 [8]: 41 µM | Activity [43]: 73% | Activity [44]: 33% | Activity [45]: 39% | Drug uptake [46]: Active | Drug uptake [47]: Active | Activity [48]: inactive | Activity [49]: 39% | Drug uptake [50]: 78% | Drug uptake [51]: Not Active | Drug uptake [52]: Active | CC50 [17]: 36 µM
